{"source": "patent US20130123264A1", "about": "“COMPOSITIONS AND METHODS FOR TREATMENT OF INFLAMMATORY BOWEL DISORDERS AND INTESTINAL CANCERS” (priority 2011, published 2013)", "key": {"[1]": {"details": "in vivo; cited from earlier work"}, "CD1 mouse colon explants": {"test_system": "CD1 mouse colon explants", "assay": "cGMP content of mucosa from mouse colon explants incubated in vitro (ELISA)", "assay_type": "cell-based", "details": "2 hours", "procedure": "The cGMP levels were standardized for protein content using OD280 of the extracts. […] Error bars indicate SEM. Asterisks indicate significance relative to control (p<0.05). CD1 mouse colon explants were incubated with PDE5 inhibitors in vitro. After 2 hours, the mucosa was harvested for analysis of cGMP content by ELISA (FIG. 10A)."}, "[2]": {"test_system": "HCT116 colon cancer cells", "assay": "cGMP content of colon cancer cells by competitive ELISA", "details": "colon cancer cell lines, 2 hours incubation"}, "[3]": {"test_system": "colon mucosa of Prkg2−/− mice", "assay": "Colon mucosa homeostasis after 7 days of treatment in PKG2 knockout animals", "assay_type": "in vivo, mouse", "procedure": "FIG. 16A is a bar graph of ileum, proximal and distal tissue versus cGMP (pmol/mg protein). […] Colon mucosa was harvested 3 hrs later for analysis of cGMP content with ELISA kit. cGMP level was measured relative to total protein loading. […] Same WT/KO tissues were analyzed for apoptosis (TUNEL). Error bars indicate SEM and asterisks show significance (p<0.05).\nFIGS. 17A, 17B, 17C, and 17D are line graphs of ascending, trans, and descending tissue samples versus goblet cells/crypt (17A and B) or CgA/crypt (17C and D). […] Error bars show SEM, N>3, *p<0.05, by two-tailed t-test.\nFIGS. 14A-14C show quantification of mature goblet cells in the ascending (A) and transverse colon (B) of wild type and PKG2 knockout animals. […] The increase in goblet cells observed in the wild type animals was not observed in the PKG2-deficient animals, which indicates the involvement of PKG2 in this process."}, "colon mucosa [4]": {"test_system": "colon mucosa", "assay": "Redox stress in colon mucosa by DCF fluorescence after IP treatment", "assay_type": "in vivo, mouse", "details": "4 h, p>0.05 by t-test (n=3)", "procedure": "After 4 h the animals were sacrificed and the colon mucosa was harvested for analysis of redox stress using DCF fluorescence. Error bars indicate standard deviation (n=3), but p>0.05 by t-test (FIG. 15B)\n(§1) Colons were removed from sacrificed animals and incubated with 20 μM DCF for 30 minutes, then homogenized and the fluorescence measured (at FITC wavelengths; 485/535 nm). Specimens were incubated directly (30 min time point), or incubated for 30 min or 90 min under standard tissue culture conditions before adding DCF for the final 30 min (60 and 120 min time points)."}, "colon mucosa [5]": {"test_system": "colon mucosa", "assay": "cGMP content of colon mucosa after intraperitoneal injection (ELISA)", "assay_type": "in vivo, mouse", "procedure": "The cGMP levels were standardized for protein content using OD280 of the extracts. […] Error bars indicate SEM. Asterisks indicate significance relative to control (p<0.05). […] FIG. 16A is a bar graph of ileum, proximal and distal tissue versus cGMP (pmol/mg protein). Mice were treated by intraperitoneal injection with PBS in vehicle (ctrl) or Vardenafil in vehicle (Vard.) (equivalence to human dose based on body weight). Colon mucosa was harvested 3 hrs later for analysis of cGMP content with ELISA kit. cGMP level was measured relative to total protein loading. […] Same WT/KO tissues were analyzed for apoptosis (TUNEL). Error bars indicate SEM and asterisks show significance (p<0.05). […] The mice were sacrificed 4 hours later and colon mucosa was harvested for analysis of cGMP content by ELISA. The cGMP levels were standardized for protein content using OD280 of the extracts. The error bars show SEM (FIG. 10B)."}, "colon mucosa [6]": {"test_system": "colon mucosa", "assay": "Colon mucosa homeostasis after 7 days of treatment (TUNEL, BrdU/Ki-67, goblet cell staining)", "assay_type": "in vivo, mouse", "details": "wild type mice, 5 mg/kg IP b.i.d. 7 days; for epithelial cell death / apoptosis (TUNEL) in colon / mature goblet cell numbers in colon: 5 mg/kg", "source_text": "Sections were stained for apoptotic cells using TUNEL in control and treated. TUNEL positive cells were found. […] FIG. 12B Quantitation of cell proliferation in the colon mucosa by BrdU incorporation. Asterisks in FIGS. 12A and 12B show statistical significance, p<0.05 of treated relative to control.\nMature goblet cells were counted in different sections of the colon following staining with Alcian blue-periodic acid schiff. FIG. 11A: Different regions of the gut (ilium of small intestine, ascending and descending portions of the colon). FIG. 11B: Relative mature goblet cell number in different sections of the proximal colon. Asterisks indicate significance (p<0.05, n=3).\nImmunohistochemistry of tissue samples from Vardenafil treated and control mice was performed."}, "[7]": {"details": "in water; cited from earlier work"}, "DSS-induced colitis": {"test_system": "DSS-induced colitis", "assay": "DSS-induced murine colitis model", "assay_type": "in vivo, mouse", "procedure": "FIG. 20A is a line graph of days of treatment versus disease activity index (DAI). […] The animal weight and stool-composition (diarrhea and bleeding) were recorded daily and are shown as disease activity index. Error bars indicate SD (n=3) and asterisks denote statistical significance (p<0.05, t-test). FIG. 20B is a line graph of proximal, mid, and distal tissue samples versus TUNEL/Crypt. Some mice were sacrificed at Day 5 with DSS for pathological analysis. Descending colons of mice treated with control (Ctrl) and Vardenafil (Vard.) were harvested and stained for apoptosis (TUNEL). Positive cells were subjected to quantification and the quantified cells were graphed. Error bars indicate SEM (n=3) and asterisks denote statistical significance (p<0.05 t-test).\nControl animals were injected with PBS vehicle. After 5 days the DSS was replaced with water. Incidence and severity of diarrhea and body weight were recorded daily and combined in an index of disease severity.\nThe best characterized mouse model of IBD involves administration of dextran sulfate-sodium (DSS) in the drinking water, and this is toxic specifically to luminal epithelial cells of the distal colon."}, "JNK": {"test_system": "JNK", "assay": "JNK-P in colon explants (immunoblotting)", "assay_type": "cell-based, mouse", "procedure": "The relative expression of DUSP10 was measured by RT-PCR in wild type and knockout mice (Prkg2+/+ and Prkg2−/−), LS174T and HT29 colon cancer cells with or without PKG2 expression, and in colon explants treated with 8BrcGMP. Mucosa from different parts of the mouse digestive tract were analyzed by immunoblotting for JNKP, total JNK, DUSP10 and PKG2. Immunoblotting of ileum and proximal colon explants with or without 8Br-cGMP treatment to activate PKG2 was also performed."}, "colon explants [8]": {"test_system": "colon explants", "assay": "Redox stress (DCF fluorescence) in colon explants", "assay_type": "cell-based, mouse", "details": "100 uM", "procedure": "FIG. 15A is a bar graph showing DCF fluorescence of extracts from colon explants with (cGMP, open bars) or without (control, filled bars) cGMP treatment.\nas §1"}, "colon explants [9]": {"test_system": "colon explants", "assay": "Antioxidant gene expression in colon explants (RT-PCR, Western blotting)", "assay_type": "cell-based, mouse", "details": "100 uM, 3-4 hours", "procedure": "Explants of proximal and distal colon from mice were treated for 3-4 hours with 100 uM 8Br-cGMP and then the mucosa was harvested for analysis of antioxidant gene and protein expression by RT-PCR and Western blotting. Blots were reprobed for b-actin expression as a loading control.\nIn addition to attenuating proliferation, the activation of Foxo4 can upregulate antioxidant genes. To determine whether activation of endogenous PKG could affect the expression of antioxidant genes in the colon, explants of proximal and distal colon from mice were treated for 3-4 hours with 100 uM 8Br-cGMP and then the mucosa was harvested for analysis of antioxidant genes expression by RT-PCR or Western blotting. HPRT and b-actin were used as loading controls."}}, "note": "Entries after “also recorded” stand apart in the source; their conditions may differ."}
{"compound": "CN1CC(=O)N2[C@H](c3ccc4c(c3)OCO4)c3[nH]c4ccccc4c3C[C@@H]2C1=O", "note": "[Tadalafil, tadalafil]", "values": [{"measurement": "t1/2", "setting": "[1]", "value": 17.5, "unit": "h"}]}
{"compound": "CCCc1nc(C)c2c(=O)[nH]c(-c3cc(S(=O)(=O)N4CCN(CC)CC4)ccc3OCC)nn12", "note": "[Vardenafil, vardenafil]", "values": [{"measurement": "cGMP levels in mouse colon explants", "setting": "CD1 mouse colon explants", "value": "significantly increase"}, {"measurement": "intracellular cGMP levels", "setting": "[2]", "value": "significantly increased"}, {"measurement": "increase in goblet cells", "setting": "[3]; PKG2-deficient animals, 5 mg/kg IP b.i.d. 7 days", "value": "not observed"}, {"measurement": "reduction in apoptosis", "setting": "[3]; PKG2 knockouts, 5 mg/kg IP b.i.d. 7 days", "value": "not observed"}, {"measurement": "homeostasis in Prkg2−/− animals", "setting": "[3]; i.p. for several days", "value": "did not affect"}, {"measurement": "redox stress levels in the colon mucosa (DCF fluorescence)", "setting": "colon mucosa [4]", "value": "partly mimic antioxidant effects of exogenous cGMP; also recorded: could indeed affect redox stress levels"}, {"measurement": "cGMP in the proximal colon epithelium", "setting": "colon mucosa [5]; IP, lesser extent in terminal ileum and distal colon", "value": "rapidly increased"}, {"measurement": "intracellular cGMP levels in mouse colon mucosa", "setting": "colon mucosa [5]; intraperitoneal injection, mucosa harvested 4 hours later", "value": "significant increase"}, {"measurement": "crypt proliferation (BrdU, Ki-67) in colon", "setting": "colon mucosa [6]", "value": "reduced"}, {"measurement": "epithelial cell death / apoptosis (TUNEL) in colon", "setting": "colon mucosa [6]", "value": "reduction; also recorded: reduced"}, {"measurement": "mature goblet cell numbers in colon", "setting": "colon mucosa [6]", "value": "dramatic increase"}, {"measurement": "epithelial cell death / apoptosis (TUNEL) in colon", "setting": "colon mucosa [6]; listed as vardenafil", "value": "reduced"}, {"measurement": "mature goblet cell numbers in colon", "setting": "colon mucosa [6]; listed as vardenafil", "value": "significantly increased"}, {"measurement": "Solubility", "setting": "[7]", "value": 110, "unit": "µg/mL"}, {"measurement": "t1/2", "setting": "[1]", "value": "4 to 5", "unit": "h"}, {"measurement": "death of animals", "setting": "DSS-induced colitis; 5% DSS, n=4, half the untreated animals died", "value": 25, "unit": "%"}, {"measurement": "DSS induced apoptosis (TUNEL)", "setting": "DSS-induced colitis; Day 5 with DSS", "value": "inhibited"}, {"measurement": "DSS induced activation of JNK", "setting": "DSS-induced colitis; descending colon, JNK-phospho T183/Y185", "value": "inhibited"}, {"measurement": "DUSP10 levels in the colon mucosa", "setting": "DSS-induced colitis; wild type mice", "value": "increased"}]}
{"compound": "Nc1nc2c(nc(Br)n2[C@@H]2O[C@@H]3COP(=O)(O)O[C@H]3[C@H]2O)c(=O)[nH]1", "note": "[8Br-cGMP]", "values": [{"measurement": "basal activated JNK-P levels in colon explants", "setting": "JNK", "value": "decrease"}, {"measurement": "redox stress (DCF fluorescence) in colon explants", "setting": "colon explants [8]", "value": "decreased"}, {"measurement": "antioxidant gene expression in colon explants", "setting": "colon explants [9]", "value": "broad increase"}]}
{"compound": "CCCc1nn(C)c2c(=O)nc(-c3cc(S(=O)(=O)N4CCN(C)CC4)ccc3OCC)[nH]c12", "note": "[Sildenafil, sildenafil]", "values": [{"measurement": "intracellular cGMP levels", "setting": "[2]", "value": "significantly increased"}, {"measurement": "Solubility", "setting": "[7]", "value": 3500, "unit": "µg/mL"}, {"measurement": "t1/2", "setting": "[1]", "value": "3 to 5", "unit": "h"}]}
